Results published in patent publication US20230357328A1, “SARS-CoV-2 PROTEIN-DERIVED PEPTIDE AND VACCINE CONTAINING SAME” (ONCOTHERAPY SCIENCE, INC., priority 2020, published 2023).
“Also recorded” adds a separate entry of the source. Read-outs that look alike come from different tables or passages of the source.

Key:
Format in all cases: cell-based, human
[1] = test system: HLA-A*24:02-expressing target cells (TISI cells)
[2] = test system: HLA-A*02:01-expressing target cells (T2 cells)
[3] = test system: HLA-A*24:02-expressing target cells (TISI cells); remark: listed apart in the source
TISI cells = test system: TISI cells
[4] = test system: CD8-positive T cells in PBMCs of individuals who had recovered from COVID-19 (HLA-A*24:02-positive)
[5] = test system: HLA-A*02:01-expressing target cells (T2 cells); remark: listed apart in the source
[6] = test system: CD8-positive T cells in PBMCs of individuals not infected with SARS-CoV-2 (HLA-A*24:02-positive)
[7] = HLA-A*24:02-restricted, peptide-pulsed TISI cells vs TISI cells not pulsed
[8] = HLA-A*02:01-restricted, peptide-pulsed T2 cells vs T2 cells not pulsed
[9] = HLA-A*24:02-restricted CTL lines, peptide-pulsed TISI cells
[10] = CTL clones from limiting dilution, TISI target cells
[11] = HLA-A*02:01-restricted CTL lines, peptide-pulsed T2 cells

Row | Sequence | Peptide-specific IFN-γ production (ELISPOT) [1, 7] | Peptide-specific IFN-γ production (ELISPOT) [2, 8] | IFN-γ production by CTL lines (ELISA) [3, 9] | Peptide-specific IFN-γ production by CTL clones (ELISA) (TISI cells; [10]) | Detection of tetramer-positive CD8-positive T cells recognizing the peptide [4] | other results
1 | RYFKYWDQTY [Peptide 12] | peptide-specific IFN-γ production was observed | peptide-specific IFN-γ production was observed |  |  |  | 
2 | FTYASALWEI (an amino acid sequence derived from ORF1ab polyprotein of SARS-CoV-2) [Peptide 10, SARS-CoV-2 ORF1ab-derived 10mer peptide, position 4089] | peptide-specific IFN-γ production was observed |  | produced IFN-γ in a peptide-specific manner | showed IFN-γ production specific to | detected | 
3 | SYSLFDMSKF [Peptide 11] | peptide-specific IFN-γ production was observed | no peptide-specific IFN-γ production was observed |  |  |  | 
4 | YAYLRKHFSM (an amino acid sequence derived from ORF1ab polyprotein of SARS-CoV-2) [Peptide 15, SARS-CoV-2 ORF1ab-derived 10mer peptide, position 5138] | peptide-specific IFN-γ production was observed | no peptide-specific IFN-γ production was observed |  |  |  | 
5 | PFAMQMAYRF (an amino acid sequence derived from surface glycoprotein of SARS-CoV-2) [Peptide 5, SARS-CoV-2 S protein-derived 10mer peptide, position 897] | peptide-specific IFN-γ production was observed | no peptide-specific IFN-γ production was observed | produced IFN-γ in a peptide-specific manner |  | detected | 
6 | LWLLWPVTL [Peptide 13] |  |  |  |  | detected | Peptide-specific IFN-γ production (ELISPOT) [1]: peptide-specific IFN-γ production was observed; IFN-γ production by CTL lines (ELISA) [3]: produced IFN-γ in a peptide-specific manner; Peptide-specific IFN-γ production (ELISPOT) [2]: peptide-specific IFN-γ production was observed; IFN-γ production by CTL lines (ELISA) [5]: produced IFN-γ in a peptide-specific manner; Detection of tetramer-positive CD8-positive T cells recognizing the peptide [6]: detected
7 | AYANSVFNI [Peptide 1] | peptide-specific IFN-γ production was observed | peptide-specific IFN-γ production was observed | produced IFN-γ in a peptide-specific manner | showed IFN-γ production specific to |  | IFN-γ production by CTL lines (ELISA) [5, 11]: produced IFN-γ in a peptide-specific manner; Detection of tetramer-positive CD8-positive T cells recognizing the peptide [6]: detected
8 | YYSQLMCQPI (an amino acid sequence derived from ORF1ab polyprotein of SARS-CoV-2) [Peptide 7, SARS-CoV-2 ORF1ab-derived 10mer peptide, position 2560] | peptide-specific IFN-γ production was observed | peptide-specific IFN-γ production was observed | produced IFN-γ in a peptide-specific manner | showed IFN-γ production specific to |  | Detection of tetramer-positive CD8-positive T cells recognizing the peptide [6]: detected
9 | YDYLVSTQEF (an amino acid sequence derived from ORF1ab polyprotein of SARS-CoV-2) [Peptide 6, SARS-CoV-2 ORF1ab-derived 10mer peptide, position 3811] | peptide-specific IFN-γ production was not found; also recorded: no peptide-specific IFN-γ production was observed |  |  |  |  | 
10 | VFMSEAKCW (an amino acid sequence derived from ORF1ab polyprotein of SARS-CoV-2) [Peptide 3, SARS-CoV-2 ORF1ab-derived 9mer peptide, position 5184] | peptide-specific IFN-γ production was observed | no peptide-specific IFN-γ production was observed |  |  |  | 
11 | TAYANSVFNI (an amino acid sequence derived from ORF1ab polyprotein of SARS-CoV-2) [Peptide 2, SARS-CoV-2 ORF1ab-derived 10mer peptide, position 5079] | peptide-specific IFN-γ production was observed | peptide-specific IFN-γ production was observed | produced IFN-γ in a peptide-specific manner | showed IFN-γ production specific to |  | IFN-γ production by CTL lines (ELISA) [5, 11]: produced IFN-γ in a peptide-specific manner
12 | RYKLEGYAF [Peptide 9] |  |  |  |  | detected | Peptide-specific IFN-γ production (ELISPOT) [1]: peptide-specific IFN-γ production was observed; IFN-γ production by CTL lines (ELISA) [3]: produced IFN-γ in a peptide-specific manner; Peptide-specific IFN-γ production (ELISPOT) [2]: no peptide-specific IFN-γ production was observed; Peptide-specific IFN-γ production by CTL clones (ELISA) (TISI cells): showed IFN-γ production specific to
13 | TYASALWEI [Peptide 4] |  |  |  |  | detected | Peptide-specific IFN-γ production (ELISPOT) [1]: peptide-specific IFN-γ production was observed; IFN-γ production by CTL lines (ELISA) [3]: produced IFN-γ in a peptide-specific manner; Peptide-specific IFN-γ production (ELISPOT) [2]: peptide-specific IFN-γ production was observed
